According to patent US20190352288A1, “MATRIX METALLOPROTEINASE (MMP) INHIBITORS AND METHODS OF USE THEREOF” (Foresee Pharmaceuticals Co., Ltd., priority 2018, published 2019):

How the values were obtained:
Format in all cases: biochemical
[1] = molecular target: T1, recombinant human MMP-12 catalytic domain (Homo sapiens, UniProt P39900); assay: MMP-12 inhibitory assay (fluorogenic substrate cleavage); settings: readout at 30 minutes, 37° C., Table 1
T1 construct: recombinant human MMP-12 catalytic domain; purchased Enzo BML-SE138
Description: (§1) The inhibitory effect of compounds on the rate of cleaving fluorogenic MMP substrate (Enzo, BML-P128) by recombinant human MMP-12 catalytic domain (Enzo, BML-SE138) was carried out by methods known in the art. Briefly, to each well of a 96-well black opaque plate, all the reagents were sequentially added by pipetting, and the final reaction contained 4 nM of recombinant human MMP-12 catalytic domain, 4 μM of fluorogenic MMP substrate, and various concentrations (0.15 nM to 10,000 nM) of tested compound dilutions in HEPES buffer (pH 7.5) containing 10 mM of CaCl2), 0.01% Brij® 35 (polyoxyethylene (23) lauryl ether), and 0.1 mg/ml of BSA.
(§2) The enzyme and compounds were pre-incubated on a shaker to mix in wells. After an hour of mixing, fluorogenic substrate was added to each well. Reaction without enzyme was used as a blank control in the plate. The plate was then fed into a plate reader to measure fluorescence intensity at Excitation/Emission wavelengths of 340 nm/440 nm every 10 mins for at least 1 hour at 37° C. The IC50 of each compound in MMP-12 inhibition was determined by using a readout obtained at time point 30 minutes.

recombinant human MMP-1 = molecular target: T2, recombinant human MMP-1 (Homo sapiens, UniProt P03956); assay: MMP selectivity assay, MMP-1; settings: Table 2 selectivity profile
T2 sequence (P03956 100-469): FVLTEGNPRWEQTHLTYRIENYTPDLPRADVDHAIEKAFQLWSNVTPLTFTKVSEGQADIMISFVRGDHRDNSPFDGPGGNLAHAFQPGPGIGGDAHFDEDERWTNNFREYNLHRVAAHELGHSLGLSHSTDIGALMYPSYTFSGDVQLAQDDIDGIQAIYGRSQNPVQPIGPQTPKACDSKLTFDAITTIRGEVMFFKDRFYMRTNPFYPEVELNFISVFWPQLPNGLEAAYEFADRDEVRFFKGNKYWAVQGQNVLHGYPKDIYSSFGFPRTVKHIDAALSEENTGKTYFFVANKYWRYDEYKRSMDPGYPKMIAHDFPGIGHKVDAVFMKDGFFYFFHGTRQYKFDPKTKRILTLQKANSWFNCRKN
Description: as §1, §2
(§3) The MMP selectivity assay was performed by using other recombinant human MMPs, including MMP-1, MMP-2, MMP-3, MMP-7, MMP-8, MMP-9, MMP-10, MMP-13, and MMP-14. The IC50 of the compounds for the other recombinant human MMPs was determined as described above in Example 1, and are shown in Table 2.

recombinant human MMP-2 = molecular target: T3, recombinant human MMP-2 (Homo sapiens, UniProt P08253); assay: MMP selectivity assay, MMP-2; settings: Table 2 selectivity profile
T3 sequence (P08253 110-660): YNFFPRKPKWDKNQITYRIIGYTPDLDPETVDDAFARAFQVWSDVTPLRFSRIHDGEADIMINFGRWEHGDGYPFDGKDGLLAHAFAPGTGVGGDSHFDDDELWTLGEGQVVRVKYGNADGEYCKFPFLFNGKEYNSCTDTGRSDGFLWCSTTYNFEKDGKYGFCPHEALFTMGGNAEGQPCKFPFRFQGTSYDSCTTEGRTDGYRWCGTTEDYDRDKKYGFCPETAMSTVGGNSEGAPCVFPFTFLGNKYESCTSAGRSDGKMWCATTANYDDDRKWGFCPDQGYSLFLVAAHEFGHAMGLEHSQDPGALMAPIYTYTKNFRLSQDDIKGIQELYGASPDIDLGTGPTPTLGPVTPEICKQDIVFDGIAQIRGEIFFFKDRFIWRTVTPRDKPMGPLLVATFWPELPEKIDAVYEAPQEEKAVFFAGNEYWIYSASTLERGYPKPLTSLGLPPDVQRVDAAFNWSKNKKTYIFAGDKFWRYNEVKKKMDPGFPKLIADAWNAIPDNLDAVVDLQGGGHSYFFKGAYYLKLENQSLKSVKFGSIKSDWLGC
Description: as §1, §2, §3

recombinant human MMP-3 = recombinant human MMP-3 (Homo sapiens, UniProt P08254); assay: MMP selectivity assay, MMP-3; settings: Table 2 selectivity profile
Description: as §1, §2, §3

recombinant human MMP-7 = molecular target: T4, recombinant human MMP-7 (Homo sapiens, UniProt P09237); assay: MMP selectivity assay, MMP-7; settings: Table 2 selectivity profile
T4 sequence (P09237 95-267): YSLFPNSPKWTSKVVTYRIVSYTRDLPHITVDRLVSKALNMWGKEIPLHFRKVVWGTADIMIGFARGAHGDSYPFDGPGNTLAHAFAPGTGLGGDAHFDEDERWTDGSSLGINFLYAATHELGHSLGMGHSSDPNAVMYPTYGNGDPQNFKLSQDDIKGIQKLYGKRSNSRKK
Description: as §1, §2, §3

recombinant human MMP-8 = recombinant human MMP-8 (Homo sapiens, UniProt P22894); assay: MMP selectivity assay, MMP-8; settings: Table 2 selectivity profile
Description: as §1, §2, §3

recombinant human MMP-9 = recombinant human MMP-9 (Homo sapiens, UniProt P14780); assay: MMP selectivity assay, MMP-9; settings: Table 2 selectivity profile
Description: as §1, §2, §3

recombinant human MMP-10 = recombinant human MMP-10 (Homo sapiens, UniProt P09238); assay: MMP selectivity assay, MMP-10; settings: Table 2 selectivity profile
Description: as §1, §2, §3

recombinant human MMP-13 = recombinant human MMP-13 (Homo sapiens, UniProt P45452); assay: MMP selectivity assay, MMP-13; settings: Table 2 selectivity profile
Description: as §1, §2, §3

recombinant human MMP-14 = recombinant human MMP-14 (Homo sapiens, UniProt P50281); assay: MMP selectivity assay, MMP-14; settings: Table 2 selectivity profile
Description: as §1, §2, §3

Sequence of recombinant human MMP-8 (P22894 101-467): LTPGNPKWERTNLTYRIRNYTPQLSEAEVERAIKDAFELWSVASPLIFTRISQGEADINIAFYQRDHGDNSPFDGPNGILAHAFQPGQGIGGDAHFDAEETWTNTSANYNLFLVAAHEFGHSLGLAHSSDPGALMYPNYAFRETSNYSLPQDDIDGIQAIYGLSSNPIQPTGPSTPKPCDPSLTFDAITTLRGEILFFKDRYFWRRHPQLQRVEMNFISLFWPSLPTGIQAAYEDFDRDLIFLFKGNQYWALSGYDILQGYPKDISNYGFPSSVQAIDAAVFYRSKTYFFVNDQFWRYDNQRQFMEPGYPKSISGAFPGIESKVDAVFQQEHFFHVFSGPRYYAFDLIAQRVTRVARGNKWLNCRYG
Sequence of recombinant human MMP-10 (P09238 99-476): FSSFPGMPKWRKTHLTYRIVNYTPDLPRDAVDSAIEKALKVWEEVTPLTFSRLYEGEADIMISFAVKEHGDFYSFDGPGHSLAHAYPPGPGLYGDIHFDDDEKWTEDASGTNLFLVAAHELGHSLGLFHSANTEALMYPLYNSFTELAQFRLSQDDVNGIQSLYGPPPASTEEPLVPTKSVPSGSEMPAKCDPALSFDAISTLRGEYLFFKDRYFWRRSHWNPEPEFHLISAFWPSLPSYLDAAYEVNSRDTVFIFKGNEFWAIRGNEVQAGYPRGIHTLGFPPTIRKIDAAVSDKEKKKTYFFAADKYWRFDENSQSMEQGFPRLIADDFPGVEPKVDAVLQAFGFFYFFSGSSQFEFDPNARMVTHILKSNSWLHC
T1 sequence (P39900 106-268 limits assumed): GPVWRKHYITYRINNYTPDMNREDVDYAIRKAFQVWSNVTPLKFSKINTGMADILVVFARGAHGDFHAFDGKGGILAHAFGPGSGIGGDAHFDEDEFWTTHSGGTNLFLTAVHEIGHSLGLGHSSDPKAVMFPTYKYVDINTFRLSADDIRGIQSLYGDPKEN
Sequence of recombinant human MMP-9 (P14780 94-707): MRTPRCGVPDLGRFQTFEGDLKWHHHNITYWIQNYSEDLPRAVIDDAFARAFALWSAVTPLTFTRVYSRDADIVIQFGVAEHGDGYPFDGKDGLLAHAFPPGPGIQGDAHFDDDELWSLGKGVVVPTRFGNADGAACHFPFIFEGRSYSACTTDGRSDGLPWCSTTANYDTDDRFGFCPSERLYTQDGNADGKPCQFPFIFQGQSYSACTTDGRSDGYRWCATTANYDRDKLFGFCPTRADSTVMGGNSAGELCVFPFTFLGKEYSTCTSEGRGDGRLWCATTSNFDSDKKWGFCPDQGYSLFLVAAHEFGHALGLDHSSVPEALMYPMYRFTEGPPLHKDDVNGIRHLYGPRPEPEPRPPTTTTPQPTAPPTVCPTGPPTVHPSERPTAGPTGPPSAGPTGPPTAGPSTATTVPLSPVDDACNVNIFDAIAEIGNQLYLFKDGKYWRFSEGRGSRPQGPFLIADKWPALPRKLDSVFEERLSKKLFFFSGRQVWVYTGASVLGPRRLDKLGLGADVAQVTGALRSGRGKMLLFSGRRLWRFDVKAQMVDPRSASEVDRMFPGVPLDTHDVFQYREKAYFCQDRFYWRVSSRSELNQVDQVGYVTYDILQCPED
Sequence of recombinant human MMP-3 (P08254 100-477): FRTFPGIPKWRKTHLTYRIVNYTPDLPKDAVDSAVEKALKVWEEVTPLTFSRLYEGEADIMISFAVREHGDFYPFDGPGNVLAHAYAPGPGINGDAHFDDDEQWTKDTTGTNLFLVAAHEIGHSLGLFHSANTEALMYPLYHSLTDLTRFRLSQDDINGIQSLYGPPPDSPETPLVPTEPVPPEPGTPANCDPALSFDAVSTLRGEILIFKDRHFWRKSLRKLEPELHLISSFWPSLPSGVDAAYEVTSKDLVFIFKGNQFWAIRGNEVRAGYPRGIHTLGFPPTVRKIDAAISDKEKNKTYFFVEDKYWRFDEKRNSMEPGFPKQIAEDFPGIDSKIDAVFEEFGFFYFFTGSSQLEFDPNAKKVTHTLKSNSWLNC

## O=C1NC(=O)C(c2cnccc2Sc2ccc(OCc3ccc(CO)cc3)cc2)N1 (stereo not drawn) [PC-7]
[1]
  IC50: 10 to 100 nM

## Cc1cc(CN(C)c2ccc(Sc3ccncc3C3NC(=O)NC3=O)cc2)ccn1 (stereo not drawn) [PC-58]
[1]
  IC50: 10 to 100 nM

## Cc1cc(COc2ccc(Sc3ncn(C)c3C3NC(=O)NC3=O)cc2)ccn1 (stereo not drawn) [OC-13]
Recombinant human MMP-1
  IC50: > 10000 nM
Recombinant human MMP-2
  IC50: 100 to 1000 nM
Recombinant human MMP-3
  IC50: 1000 to 10000 nM
Recombinant human MMP-7
  IC50: > 10000 nM
Recombinant human MMP-8
  IC50: 100 to 1000 nM
Recombinant human MMP-9
  IC50: 1000 to 10000 nM
Recombinant human MMP-10
  IC50: 1000 to 10000 nM
Recombinant human MMP-13
  IC50: 100 to 1000 nM
Recombinant human MMP-14
  IC50: 100 to 1000 nM

## O=C1NC(=O)C(c2cnccc2Sc2ccc(OCc3cccc(O)c3)cc2)N1 (stereo not drawn) [PC-10]
Recombinant human MMP-1
  IC50: > 10000 nM
Recombinant human MMP-2
  IC50: 1000 to 10000 nM
Recombinant human MMP-3
  IC50: 1000 to 10000 nM
Recombinant human MMP-7
  IC50: > 10000 nM
Recombinant human MMP-8
  IC50: 1000 to 10000 nM
Recombinant human MMP-9
  IC50: 1000 to 10000 nM
Recombinant human MMP-10
  IC50: > 10000 nM
Recombinant human MMP-13
  IC50: 1000 to 10000 nM
Recombinant human MMP-14
  IC50: > 10000 nM

## COc1cc(COc2ccc(Sc3ccncc3C3NC(=O)NC3=O)cc2)ccn1 (stereo not drawn) [PC-30]
[1]
  IC50: 10 to 100 nM

## CCOc1cccc(COc2ccc(Sc3ccsc3C3NC(=O)NC3=O)cc2)c1 (stereo not drawn) [TC2]
[1]
  IC50: 100 to 1000 nM

## Cc1cc(COc2ccc(Sc3ccncc3C3NC(=O)NC3=O)cc2C)ccn1 (stereo not drawn) [PC-48]
Recombinant human MMP-1
  IC50: > 10000 nM
Recombinant human MMP-2
  IC50: 1000 to 10000 nM
Recombinant human MMP-3
  IC50: 1000 to 10000 nM
Recombinant human MMP-7
  IC50: > 10000 nM
Recombinant human MMP-8
  IC50: 1000 to 10000 nM
Recombinant human MMP-9
  IC50: 1000 to 10000 nM
Recombinant human MMP-10
  IC50: 1000 to 10000 nM
Recombinant human MMP-13
  IC50: 100 to 1000 nM
Recombinant human MMP-14
  IC50: > 10000 nM

## Cc1cc(COc2ccc(Sc3ccncc3C3NC(=O)NC3=O)cc2F)ccn1 (stereo not drawn) [PC-52]
[1]
  IC50: 10 to 100 nM

## O=C1NC(=O)C(c2ccncc2Sc2ccc(OCc3ccc(CO)cc3)cc2)N1 (stereo not drawn) [PC-14]
[1]
  IC50: 10 to 100 nM

## Cc1cccc(COc2ccc(Sc3ncn(C)c3C3NC(=O)NC3=O)cc2)c1 (stereo not drawn) [OC-6]
[1]
  IC50: 10 to 100 nM

## Cc1cccc(COc2ccc([S+]([O-])c3ccncc3C3NC(=O)NC3=O)cc2)c1 (stereo not drawn) [PC-5]
[1]
  IC50: 100 to 1000 nM

## O=C1NC(=O)C(c2cnccc2Sc2ccc(OCc3ccccc3CO)cc2)N1 (stereo not drawn) [PC-9]
[1]
  IC50: 10 to 100 nM

## O=C1NC(=O)C(c2ccncc2Sc2ccc(OCc3ccnc(CO)c3)cc2)N1 (stereo not drawn) [PC-53]
[1]
  IC50: 10 to 100 nM

## Cc1cc(COc2ccc(Sc3ccncc3C3NC(=O)NC3=O)cc2Cl)ccn1 (stereo not drawn) [PC-49]
[1]
  IC50: 10 to 100 nM

## Cc1cc(CCc2ccc(Sc3ccncc3C3NC(=O)NC3=O)cc2)ccn1 (stereo not drawn) [PC-57]
[1]
  IC50: 10 to 100 nM

## COc1ccc(CN2C(=O)NC(c3cnccc3Sc3ccc(OCc4ccnc(C)c4)cc3)C2=O)cc1 (stereo not drawn) [PC-55]
[1]
  IC50: 100 to 1000 nM

## Cc1cccc(COc2ccc(Oc3ccncc3C3NC(=O)NC3=O)cc2)c1 (stereo not drawn) [PC-26]
[1]
  IC50: 10 to 100 nM

## Cc1cccc(COc2ccc(Sc3cnccc3C3NC(=O)NC3=O)cc2)c1 (stereo not drawn) [PC-4]
[1]
  IC50: 10 to 100 nM

## Cc1cc(COc2ccc(Sc3c(C4NC(=O)NC4=O)ncn3C)cc2)ccn1 (stereo not drawn) [OC-14]
[1]
  IC50: 10 to 100 nM

## Cc1cc(CCc2ccc(Oc3ccncc3C3NC(=O)NC3=O)cc2)ccn1 (stereo not drawn) [PC-62]
[1]
  IC50: 100 to 1000 nM

## Cc1cc(OCc2ccc(Sc3ccncc3C3NC(=O)NC3=O)cc2)ccn1 (stereo not drawn) [PC-44]
[1]
  IC50: 10 to 100 nM

## CC(C)[C@H](N)C(=O)OCc1cccc(COc2ccc(Sc3ccncc3C3NC(=O)NC3=O)cc2)c1 (stereo partly drawn) [PC-11]
[1]
  IC50: 10 to 100 nM

## Cc1cc(CNc2ccc(Sc3ccncc3C3NC(=O)NC3=O)cc2)ccn1 (stereo not drawn) [PC-56]
[1]
  IC50: 10 to 100 nM

## Cc1cc(COc2ccc(Sc3ccncc3C3NC(=O)NC3=O)cn2)ccn1 (stereo not drawn) [PC-61]
[1]
  IC50: 100 to 1000 nM

## Cc1cccc(COc2ccc(Sc3ncoc3C3NC(=O)NC3=O)cc2)c1 (stereo not drawn) [OC-10]
[1]
  IC50: 10 to 100 nM

## Cc1cccc(COc2ccc(Sc3cnn(C)c3C3NC(=O)NC3=O)cc2)c1 (stereo not drawn) [OC-5]
[1]
  IC50: 10 to 100 nM

## Cc1cccc(COc2ccc(Sc3cc[n+](O)cc3C3NC(=O)NC3=O)cc2)c1 (stereo not drawn) [OC-3]
[1]
  IC50: 10 to 100 nM
